By IC50 is commonly meant the concentration needed to halve the response being measured.

For data set [1], the target named is B. anthracis IMPDH (Bacillus anthracis, UniProt A0A6L8P2U9). The experiment in a line: biochemical.
For data set [2], the target named is S. pyogenes IMPDH (Streptococcus pyogenes, UniProt P0C0H6). The experiment in a line: biochemical.
The test system of data set [3] is Bu. mallei IMPDH. It is filed as biochemical, Burkholderia mallei. The note with it: FIG. 24.
Data set [4] concerns the target F. tularensis IMPDH (Francisella tularensis, UniProt Q5NFC2). The experiment in a line: biochemical.
The target in data set [5] is T1, CpIMPDH (Cryptosporidium parvum, UniProt Q8T6T2).
T1 sequence (Q8T6T2 1-400): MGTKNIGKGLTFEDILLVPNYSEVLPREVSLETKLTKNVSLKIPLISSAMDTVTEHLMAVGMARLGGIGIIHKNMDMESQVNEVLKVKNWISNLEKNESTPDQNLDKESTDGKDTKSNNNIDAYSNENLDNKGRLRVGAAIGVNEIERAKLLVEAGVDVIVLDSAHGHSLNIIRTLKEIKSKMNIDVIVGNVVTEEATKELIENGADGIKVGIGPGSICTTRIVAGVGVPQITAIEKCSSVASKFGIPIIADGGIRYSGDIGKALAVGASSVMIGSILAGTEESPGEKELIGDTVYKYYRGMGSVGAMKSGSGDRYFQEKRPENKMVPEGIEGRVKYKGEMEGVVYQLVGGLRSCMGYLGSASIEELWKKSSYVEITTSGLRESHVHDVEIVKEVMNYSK
The note with it: read-out: IC50 against CpIMPDH.

Data set [6] concerns Caco-2 cells. The experiment in a line: Efflux from preloaded Caco-2 cells. It is filed as in vitro ADME, human. The conditions noted are these: preincubated with 100 μM. The method, then:
FIG. 37 depicts the amount of P131 remaining in Caco-2 cells after the cells were loaded with different concentrations of P131 for 2 h at 37° C. in HBSS. The efflux tin is −1 h for loading at 100 μM and 2 h for 20 μM and 5 μM.
We preloaded Caco-2 cells with 5, 20 or 100 μM P131, then measured efflux (FIG. 37). The initial intracellular concentrations of P131 were dose dependent and scaled with the extracellular concentration for the 5 and 20 μM preincubation conditions. […] P131 efflux was very slow under all three conditions, with tin of 1-2 h.

Data set [7] relates to C. parvum. The conditions noted are these: IL-12 knockout mice, 250 mg/kg daily oral gavage.
Data set [8] concerns Caco-2 cells. The experiment in a line: Uptake in Caco-2 cells. It is filed as in vitro ADME, human. The note with it: extracellular concentration 10 μM. The method, then: FIG. 33 tabulates urea CpIMPDH inhibitor permeability and uptake in Caco-2 TC7 cells. All compounds at 10 μM, pH 7.4 on both sides. Solid recovery >80% in all cases. a. Approximate intracellular concentration, assuming 4 μL of water for 1 mg of cellular protein.
To further investigate the relationship between intestinal accumulation and antiparasitic activity, we measured the uptake of the CpIMPDH inhibitors in Caco-2 cells, a widely used model of human intestinal epithelial cells. Uptake varied over a range of 2000-fold among the eight CpIMPDH inhibitors (FIG. 33). […] All of the other compounds accumulated intracellular concentrations in excess of the extracellular concentration. […] The concentrations of all the other compounds were lower by at least a factor of 10, but nevertheless exceeded the concentrations required to inhibit CpIMPDH.

Data set [9] in a line: Plasma pharmacokinetics in C57BL/6 mice. It is filed as in vivo, mouse. Here is the method:
FIG. 32 tabulates the pharmacokinetic parameters for urea CpIMPDH inhibitors. C57BL/6 mice received a single dose of 250 mg/kg in 10% DMSO/corn oil by oral gavage.
Given the limited efficacy of current treatments, the pharmacokinetic and physicochemical properties required for in vivo efficacy have not been established. […] P82 is the primary product of P83 metabolism, so the concentration of P82 in plasma was also measured during P83 treatment.
PK was assessed at either the Stony Brook Translation Experimental Laboratory Therapeutics (Stony Brook, NY) or GVK Biosciences (Hyderabad, India).

Data set [10] concerns the target A. baumannii IMPDH (Acinetobacter baumannii, UniProt D0CF46). The experiment in a line: biochemical.
Data set [11] in a line: Tissue distribution of P131 in mice. The conditions noted are these: 24 h after a single 83 mg/kg oral dose.
Data set [12] has as its system gut microbiota. The note with it: 250 mg/kg daily, 7 days, compared with vehicle.

Sequence of B. anthracis IMPDH (A0A6L8P2U9 1-487): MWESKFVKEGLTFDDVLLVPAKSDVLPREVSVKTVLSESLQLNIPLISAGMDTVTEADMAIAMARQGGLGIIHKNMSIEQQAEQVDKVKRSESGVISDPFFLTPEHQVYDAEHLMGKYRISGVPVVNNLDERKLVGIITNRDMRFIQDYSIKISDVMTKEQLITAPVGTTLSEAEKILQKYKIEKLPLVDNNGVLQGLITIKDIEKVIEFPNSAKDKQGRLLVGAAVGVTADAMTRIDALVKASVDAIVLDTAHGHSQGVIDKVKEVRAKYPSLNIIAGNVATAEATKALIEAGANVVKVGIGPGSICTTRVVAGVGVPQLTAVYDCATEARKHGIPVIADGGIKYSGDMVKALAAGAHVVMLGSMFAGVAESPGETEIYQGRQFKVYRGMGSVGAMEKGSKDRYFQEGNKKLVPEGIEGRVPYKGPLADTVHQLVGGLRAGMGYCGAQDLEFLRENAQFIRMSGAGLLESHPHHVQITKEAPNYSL
Sequence of A. baumannii IMPDH (D0CF46 entry or part of it): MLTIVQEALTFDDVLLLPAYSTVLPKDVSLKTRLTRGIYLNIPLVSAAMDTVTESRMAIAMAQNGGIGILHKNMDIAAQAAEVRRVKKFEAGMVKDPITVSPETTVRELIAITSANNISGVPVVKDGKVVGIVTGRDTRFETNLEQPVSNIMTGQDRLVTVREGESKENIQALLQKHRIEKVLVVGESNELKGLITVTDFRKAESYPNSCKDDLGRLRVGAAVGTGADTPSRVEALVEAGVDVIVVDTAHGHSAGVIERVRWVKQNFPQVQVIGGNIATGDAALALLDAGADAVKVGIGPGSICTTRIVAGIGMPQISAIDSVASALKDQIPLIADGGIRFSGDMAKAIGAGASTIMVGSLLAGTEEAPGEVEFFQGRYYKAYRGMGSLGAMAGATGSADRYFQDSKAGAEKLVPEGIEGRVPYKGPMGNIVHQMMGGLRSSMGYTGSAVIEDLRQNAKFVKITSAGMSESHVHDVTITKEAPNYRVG
Sequence of F. tularensis IMPDH (Q5NFC2 1-486): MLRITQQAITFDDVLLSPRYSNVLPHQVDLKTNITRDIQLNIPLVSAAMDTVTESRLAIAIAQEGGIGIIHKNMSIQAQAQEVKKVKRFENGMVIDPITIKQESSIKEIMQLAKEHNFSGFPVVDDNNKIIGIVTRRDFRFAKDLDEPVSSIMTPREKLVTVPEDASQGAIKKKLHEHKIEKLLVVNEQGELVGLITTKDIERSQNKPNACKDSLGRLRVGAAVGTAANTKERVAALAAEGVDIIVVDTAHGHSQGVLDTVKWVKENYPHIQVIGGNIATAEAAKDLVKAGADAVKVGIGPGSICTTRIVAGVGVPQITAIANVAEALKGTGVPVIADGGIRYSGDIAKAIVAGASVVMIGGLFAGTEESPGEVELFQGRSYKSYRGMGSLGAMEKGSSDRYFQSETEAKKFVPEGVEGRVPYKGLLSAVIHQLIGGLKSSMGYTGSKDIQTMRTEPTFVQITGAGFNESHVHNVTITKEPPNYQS
Sequence of S. pyogenes IMPDH (P0C0H6 whole entry): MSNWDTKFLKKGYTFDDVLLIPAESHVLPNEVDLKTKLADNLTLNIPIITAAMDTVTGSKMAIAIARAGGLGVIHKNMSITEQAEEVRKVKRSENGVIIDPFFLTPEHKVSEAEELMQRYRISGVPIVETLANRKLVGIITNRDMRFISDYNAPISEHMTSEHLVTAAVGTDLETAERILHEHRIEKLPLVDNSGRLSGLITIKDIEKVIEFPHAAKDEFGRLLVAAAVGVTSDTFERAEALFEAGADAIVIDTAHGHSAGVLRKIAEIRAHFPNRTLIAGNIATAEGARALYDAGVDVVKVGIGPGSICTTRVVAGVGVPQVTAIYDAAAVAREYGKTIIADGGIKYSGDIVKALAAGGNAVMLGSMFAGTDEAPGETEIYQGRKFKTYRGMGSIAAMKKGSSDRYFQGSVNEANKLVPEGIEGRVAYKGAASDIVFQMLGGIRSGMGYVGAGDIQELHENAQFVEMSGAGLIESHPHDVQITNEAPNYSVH

`Cn1nc(CC(=O)Nc2ccc3oc4ccccc4c3c2)c2ccccc2c1=O` [Compound D73, N-(dibenzo[b,d]furan-2-yl)-2-(3-methyl-4-oxo-3,4-dihydrophthalazin-1-yl)acetamide]: the IC50 in [1] was 270 nM; in data set [2], over 100000 nM; in [3] it was 100 nM; in data set [4] it was 60 nM; in data set [5], 4 nM.
Consider `CC(=NOCCN)c1cccc(C(C)(C)NC(=O)Nc2ccc(Cl)c([N+](=O)[O-])c2)c1` [Compound P131], for which the “cytotoxicity to Caco-2 cells” value in [6] is “Some cytotoxicity”. The “in vivo antiparasitic activity, fecal oocysts (in words)” value in [7] is “anticryptosporidial activity”. Moreover, the “uptake/accumulation in Caco-2 cells (in words)” value in data set [8] is given as “millimolar concentrations”. Moreover, the values for the IC50 in data set [1] and in data set [10] were 210 nM and 710 nM, respectively. For the same compound, the plasma half-life in data set [9] (250 mg/kg single oral dose, C57BL/6 mice) stood at 4 h. For the same compound, the Cmax in data set [9] (250 mg/kg single oral dose, C57BL/6 mice, read-out: maximal plasma concentration (Cmax)) was 9 µM. Moreover, in data set [9] (mouse, in vivo), the “plasma pharmacokinetic behavior / systemic distribution (in words)” value is “poor systemic distribution”. The “intestine and feces concentration over IC50 for CpIMPDH inhibition” value in [11] is “more than 100 fold”. Further, the “impact on fecal microbiota” value in data set [12] is given as “no additional impact”.

The values above are taken from US9447134B2 (priority 2012, dated 2016).
